{"source": "patent US20250388625A1", "about": "“CYCLOSPORINE ANALOGUES” (priority 2022, published 2025)", "key": {"CypA": {"molecular_target": "CypA (Homo sapiens, UniProt P62937)", "sequence (P62937 whole entry)": "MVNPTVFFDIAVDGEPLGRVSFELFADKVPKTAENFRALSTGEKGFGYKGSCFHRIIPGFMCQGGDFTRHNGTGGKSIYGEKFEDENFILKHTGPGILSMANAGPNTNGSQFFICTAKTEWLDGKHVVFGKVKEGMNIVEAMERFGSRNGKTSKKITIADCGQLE", "test": "biochemical", "type": "binding", "details": "for Kd / Max Response: SPR, Biacore, 25° C.", "description": "CypA binding was carried out using surface plasmon resonance as described (Warne J Biol Chem. 2016 Feb. 26; 291 (9): 4356-73).\nSurface Plasmon Resonance (SPR) using Biacore at 25° C. was used to study the binding interactions between CypA and various inhibitors. The SPR binding experiments used a duel flow cell with a blank reference. The sensor chip surface was initially activated with a mixture of N-hydroxysuccinimide (NHS,) and N-(3-dimethyl-aminopropyl)-N′-ethyl-carbodiimide hydrochloride (EDC) for 420 s with a flow rate of 10 μl/min on blank flow cell 1 in addition to flow cell 2.\nCypA protein was diluted to a concentration of 50 μg/mL by the addition of 10 mM sodium acetate pH 5 solution before immobilisation and covalent attachment to the carboxy-methylated dextran matrix of the Biacore CM5 sensor chip. CypA was run against the surface for 420 s and then any unreacted surface was quenched by 420 s of ethanolamine.\nImmobilisations were carried out in the presence of JW47 (Warne J Biol Chem. 2016 Feb. 26; 291 (9): 4356-73).\nNo regeneration stage was required if the dissociation time was sufficient.\nSolvent correction was carried out in each experiment using 8 different DMSO dilutions as reference: 2.8%, 2.6%, 2.4%, 2.2%, 2%, 1.8%, 1.6% & 1.5%.\nA 50/50 mixture of buffer and DMSO is required to include a wash cycle in the experiment.\n50 μl of CypA (0.1 mg/ml)+40 μL of 10 mM sodium acetate pH5+10 μl of 600 μM of JW47 DMSO solution. This mixture was allowed to stand at room temperature for 10 mins prior to set-up in the injection rack."}, "U87 cells": {"test_system": "U87 cells", "test": "HIV-GFP infection of U87 cells (FIG. 2)", "type": "cell-based", "details": "MOI 0.3, tested at 2.5, 5, or 10 μM", "description": "Next, an experiment was performed in U87 cells. These cells differ from THP-1 in that they express IFITM3 and TRIM5. Thus only inhibitors with reduced CypA inhibition will rescue infection. This functionally tests whether the inhibitors have lost CypA inhibition, but retain IFITM3 inhibition.\nU87 cells were infected at an MOI of 0.3 in the presence of DMSO (0.1% v/v) or inhibitors at 2.5, 5, or 10 μM (left bar to right bar for each indicated compound, respectively). Inhibition of IFITM3 raises infectivity. Unlike other inhibitors, BG147 gives maximal infection enhancement at the lowest concentration of 2.5 μM. Other molecules achieve maximal infection rescue at the highest concentration."}, "Human stem cells (HSC) [1]": {"test_system": "Human stem cells (HSC)", "type": "cell-based"}, "Human stem cells (HSC) [2]": {"test_system": "Human stem cells (HSC)", "test": "Mean fluorescent intensity of transduced human stem cells (FIG. 7)", "type": "cell-based", "details": "for overall performance as transduction enhancer in stem cells: Examples 5 and 6", "description": "Here a different measurement was made of transgene expression using the cells from the same experiment as that above (Example 5). Rather than measuring the number of cells transduced (% infection) the mean fluorescent intensity (greenness of the transgene expressing cells) was measured."}, "Human stem cells (HSC) [3]": {"test_system": "Human stem cells (HSC)", "test": "Cell viability of human stem cells (FIG. 5)", "details": "compared with PS+LB treatment"}, "IFITM3 [4]": {"molecular_target": "T1, IFITM3 (Homo sapiens, UniProt Q01628)", "T1 sequence (Q01628 whole entry)": "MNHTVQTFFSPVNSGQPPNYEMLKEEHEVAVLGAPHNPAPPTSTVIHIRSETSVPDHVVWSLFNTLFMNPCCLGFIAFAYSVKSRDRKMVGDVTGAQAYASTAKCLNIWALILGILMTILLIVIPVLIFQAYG", "type": "cell-based", "design": "treated with 10 ng/ml type 1 interferon (IFNβ) overnight to induce IFITM3 expression; endogenous in cells; host or cells: THP-1 (human monocytic cell line), IFNβ-treated"}, "IFITM3 [5]": {"molecular_target": "T1, IFITM3", "type": "cell-based", "design": "treated with 10 ng/ml type 1 interferon (IFNβ) overnight to induce IFITM3 expression; endogenous in cells; host or cells: THP-1 (human monocytic cell line), IFNβ-treated", "remark": "listed apart in the source"}, "[6]": {"test_system": "SARS-COV-2 (Alpha, Delta or Omicron isolates)", "test": "SARS-COV-2 replication in Calu-3 lung epithelial cells by RT-qPCR (FIG. 9B)", "type": "cell-based"}, "IFITM3 [7]": {"molecular_target": "T1, IFITM3", "type": "cell-based", "design": "treated with 10 ng/ml type 1 interferon (IFNβ) overnight to induce IFITM3 expression; endogenous in cells; host or cells: THP-1 (human monocytic cell line), IFNβ-treated", "remark": "listed apart in the source"}, "IFITM3 [8]": {"molecular_target": "T1, IFITM3", "test": "IFITM3 levels by immunoblot in IFNβ-treated THP-1 cells (FIG. 9A)", "type": "cell-based", "design": "treated with 10 ng/ml type 1 interferon (IFNβ) overnight to induce IFITM3 expression; endogenous in cells; host or cells: THP-1 (human monocytic cell line), IFNβ-treated", "details": "5 μM, 6 hours; Actin loading control", "description": "THP-1 cells (human monocytic cell line) were treated with […] Type I interferon (IFNβ) overnight to induce IFITM3 expression. […] Protein samples were harvested 6 hours later and the IFITM3 levels measured by immunoblot with Actin detected as a loading control. IFN induces IFITM3."}}, "data": [{"smiles": "CC[C@@H]1NC(=O)[C@H]([C@H](O)[C@H](C)C/C=C/c2ccc(C(=O)OCCn3ccnc3)c3ccccc23)N(C)C(=O)[C@H](C(C)C)N(C)C(=O)[C@H](CC(C)C)N(C)C(=O)[C@H](CC(C)C)N(C)C(=O)[C@@H](C)NC(=O)[C@H](C)NC(=O)[C@H](CC(C)C)N(C)C(=O)[C@H](C(C)C)NC(=O)[C@H](CC(C)C)N(C)C(=O)CN(C)C1=O", "note": "[BG147, 2-(1H-imidazol-1-yl)-ethyl-4-((4R,5R,E)-5-((2S,5S,11S,14S,17S,20S,23R,26S,29S,32S)-5-ethyl-11,17,26,29-tetraisobutyl-14,32-diisopropyl-1,7,10,16,20,23,25,28,31-nonamethyl-3,6,9,12,15,18,21,24,27,30,33-undecaoxo-1,4,7,10,13,16,19,22,25,28,31-undecaazacyclotritriacontan-2-yl)-5-hydroxy-4-methylpent-1-en-1-yl)-1-naphthoate]", "values": [{"measurement": "koff", "setting": "CypA", "value": 0.0216, "unit": "s⁻¹"}, {"measurement": "kon", "setting": "CypA", "value": 9750, "unit": "M⁻¹ s⁻¹"}, {"measurement": "Kd", "setting": "CypA; Kd (Affinity)", "value": 5270, "unit": "nM"}, {"measurement": "Kd", "setting": "CypA; Kd (Kinetics)", "value": 2220, "unit": "nM"}, {"measurement": "Max Response", "setting": "CypA", "value": 14.0, "unit": "RU"}, {"measurement": "concentration giving maximal infection enhancement", "setting": "U87 cells", "value": 2.5, "unit": "µM"}, {"measurement": "transduction enhancement (% infected human stem cells), first donor", "setting": "Human stem cells (HSC) [1]; 48 hours post transduction, FIG. 4", "value": "out performs other inhibitors and is as effective as state of the art transduction enhancer"}, {"measurement": "transduction enhancement (% infected human stem cells), second HSC donor", "setting": "Human stem cells (HSC) [1]; 48 hours post transduction, FIG. 6", "value": "out-performed other inhibitors including state of the art transduction enhancer combination of LB+PS"}, {"measurement": "combination effect on number of transduced cells", "setting": "Human stem cells (HSC) [1]; BG147 at 2.5 μM with PS and LB, second HSC donor", "value": "additive with PS and LB giving the best number of transduced (infected) cells"}, {"measurement": "overall performance as transduction enhancer in stem cells", "setting": "Human stem cells (HSC) [2]", "value": "performs best"}, {"measurement": "mean fluorescent intensity (greenness of transgene expressing cells)", "setting": "Human stem cells (HSC) [2]; treatment with 2.5 μM BG147+PS+LB", "value": "greenest cells"}, {"measurement": "cell viability after treatment", "setting": "Human stem cells (HSC) [3]", "value": "viability is good"}, {"measurement": "rescue of infection from IFN (% infected cells)", "setting": "IFITM3 [4]", "value": "completely rescued infection from IFN"}, {"measurement": "relative potency in rescue of infection", "setting": "IFITM3 [5]", "value": "more potent than CsH"}, {"measurement": "rescue of infection from the antiviral effect of IFN", "setting": "IFITM3 [5]", "value": "rescue infection from the antiviral effect of IFN"}]}, {"smiles": "CC[C@@H]1NC(=O)[C@H]([C@H](O)[C@H](C)C/C=C/c2ccc(C(=O)OCCn3ccnc3)cc2)N(C)C(=O)[C@H](C(C)C)N(C)C(=O)[C@H](CC(C)C)N(C)C(=O)[C@H](CC(C)C)N(C)C(=O)[C@@H](C)NC(=O)[C@H](C)NC(=O)[C@H](CC(C)C)N(C)C(=O)[C@H](C(C)C)NC(=O)[C@H](CC(C)C)N(C)C(=O)CN(C)C1=O", "note": "[JW3-158, 2-(1H-imidazol-1-yl)ethyl-4-((4R,5R,E)-5-((2S,5S,11S,14S,17S,20S,23R,26S,29S,32S)-5-ethyl-11,17,26,29-tetraisobutyl-14,32-diisopropyl-1,7,10,16,20,23,25,28,31-nonamethyl-3,6,9,12,15,18,21,24,27,30,33-undecaoxo-1,4,7,10,13,16,19,22,25,28,31-undecaazacyclotritriacontan-2-yl)-5-hydroxy-4-methylpent-1-en-1-yl)benzoate]", "values": [{"measurement": "koff", "setting": "CypA", "value": 0.00217, "unit": "s⁻¹"}, {"measurement": "kon", "setting": "CypA", "value": 13400, "unit": "M⁻¹ s⁻¹"}, {"measurement": "Kd", "setting": "CypA; Kd (Affinity)", "value": 1830, "unit": "nM"}, {"measurement": "Kd", "setting": "CypA; Kd (Kinetics)", "value": 160, "unit": "nM"}, {"measurement": "Max Response", "setting": "CypA", "value": 27.0, "unit": "RU"}, {"measurement": "overall performance as transduction enhancer in stem cells", "setting": "Human stem cells (HSC) [2]", "value": "not working so well"}, {"measurement": "inhibition of viral replication (E copies, fold change vs DMSO)", "setting": "[6]", "value": "inhibits Delta and Omicron replication to a greater extent than Alpha"}, {"measurement": "cell viability after treatment", "setting": "Human stem cells (HSC) [3]", "value": "viability is good"}, {"measurement": "fold rescue compared to inhibited baseline", "setting": "IFITM3 [7]", "value": 29.2, "unit": "fold"}, {"measurement": "IFITM3 protein levels by immunoblot", "setting": "IFITM3 [8]", "value": "most potent effect"}]}]}
